Assay results as given in publication PMC9104438, “Application of a Fluorescence Anisotropy-Based Assay to Quantify Transglutaminase 2 Activity in Cell Lysates” (International Journal of Molecular Sciences, 2022).

Columns and labels:
hTGase 2 [1] = target: T1, hTGase 2 (Homo sapiens, UniProt P21980); design: purchased Zedira T022; method as in PMID 29664627; details: fluorimetric activity assay; mean (SEM); cited from earlier work
T1 sequence (P21980 1-687): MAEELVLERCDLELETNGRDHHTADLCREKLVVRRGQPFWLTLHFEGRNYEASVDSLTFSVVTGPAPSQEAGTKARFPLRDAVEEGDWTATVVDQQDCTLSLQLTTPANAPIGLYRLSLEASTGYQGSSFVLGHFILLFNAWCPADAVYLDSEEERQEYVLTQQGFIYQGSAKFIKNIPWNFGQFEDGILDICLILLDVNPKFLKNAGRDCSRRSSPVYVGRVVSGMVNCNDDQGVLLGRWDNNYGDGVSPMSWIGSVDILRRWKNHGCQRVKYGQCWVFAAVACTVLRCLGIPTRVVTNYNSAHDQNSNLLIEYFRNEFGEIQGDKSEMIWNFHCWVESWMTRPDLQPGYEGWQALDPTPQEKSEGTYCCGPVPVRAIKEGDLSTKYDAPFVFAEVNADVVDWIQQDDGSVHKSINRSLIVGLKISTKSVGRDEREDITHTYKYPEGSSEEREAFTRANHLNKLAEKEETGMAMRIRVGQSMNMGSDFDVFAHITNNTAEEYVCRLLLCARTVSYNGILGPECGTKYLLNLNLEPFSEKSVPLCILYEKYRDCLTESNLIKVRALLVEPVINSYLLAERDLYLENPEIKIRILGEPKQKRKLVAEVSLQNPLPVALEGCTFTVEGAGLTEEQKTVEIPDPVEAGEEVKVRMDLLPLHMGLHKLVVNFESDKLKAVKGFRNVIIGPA

hTGase 3 = target: T2, hTGase 3 (Homo sapiens, UniProt Q08188); assay: FA-based assay, characterization of irreversible inhibitors
T2 sequence (Q08188 2-467 limits assumed): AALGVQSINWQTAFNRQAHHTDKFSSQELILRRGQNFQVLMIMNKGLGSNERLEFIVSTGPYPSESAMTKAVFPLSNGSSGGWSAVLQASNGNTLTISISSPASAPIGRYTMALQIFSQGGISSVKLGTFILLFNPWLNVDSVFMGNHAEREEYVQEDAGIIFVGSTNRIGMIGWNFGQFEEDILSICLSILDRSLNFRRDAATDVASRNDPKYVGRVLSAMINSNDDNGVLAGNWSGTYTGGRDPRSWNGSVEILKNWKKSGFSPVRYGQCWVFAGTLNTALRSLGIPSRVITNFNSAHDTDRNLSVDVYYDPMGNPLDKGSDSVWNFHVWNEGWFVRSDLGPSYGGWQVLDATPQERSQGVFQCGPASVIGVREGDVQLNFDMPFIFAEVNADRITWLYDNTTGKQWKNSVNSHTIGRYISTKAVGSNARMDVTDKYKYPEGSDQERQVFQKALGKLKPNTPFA
T2 sequence (Q08188 468-693 partner limits assumed): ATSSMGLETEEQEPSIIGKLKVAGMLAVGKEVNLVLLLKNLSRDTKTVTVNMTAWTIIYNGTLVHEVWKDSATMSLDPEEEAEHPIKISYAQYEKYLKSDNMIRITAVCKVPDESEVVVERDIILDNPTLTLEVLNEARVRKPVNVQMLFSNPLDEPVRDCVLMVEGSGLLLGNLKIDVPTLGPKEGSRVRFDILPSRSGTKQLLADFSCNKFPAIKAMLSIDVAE

hTGase 2 [2] = target: T1, hTGase 2; assay: Fluorimetric activity assay (substrate Z-Glu(HMC)-Gly-OH); format: biochemical; design: purchased Zedira T022; details: mean (SEM) of 2 experiments
Experimental: The kinetic characterization of compounds 3 and 4 by means of their kinact/KI values was performed using a fluorimetric activity assay (substrate Z-Glu(HMC)-Gly-OH) as described recently.

hTGase 2 [3] = target: T1, hTGase 2; design: purchased Zedira T022; method as in PMID 29664627; details: hTGase 2 5 µg/mL, R-I-Cad 0.74 µM, mean (SEM), cited from earlier work
hTGase 1 = target: T3, hTGase 1 (Homo sapiens, UniProt P22735); assay: FA-based assay, kinetic characterization of acyl donor DMC with R-I-Cad; format: biochemical; design: purchased Zedira T009; details: hTGase 1 2 µg/mL, R-I-Cad 0.74 µM, pH 8.0, 30 °C, mean (SEM)
T3 sequence (P22735 1-817): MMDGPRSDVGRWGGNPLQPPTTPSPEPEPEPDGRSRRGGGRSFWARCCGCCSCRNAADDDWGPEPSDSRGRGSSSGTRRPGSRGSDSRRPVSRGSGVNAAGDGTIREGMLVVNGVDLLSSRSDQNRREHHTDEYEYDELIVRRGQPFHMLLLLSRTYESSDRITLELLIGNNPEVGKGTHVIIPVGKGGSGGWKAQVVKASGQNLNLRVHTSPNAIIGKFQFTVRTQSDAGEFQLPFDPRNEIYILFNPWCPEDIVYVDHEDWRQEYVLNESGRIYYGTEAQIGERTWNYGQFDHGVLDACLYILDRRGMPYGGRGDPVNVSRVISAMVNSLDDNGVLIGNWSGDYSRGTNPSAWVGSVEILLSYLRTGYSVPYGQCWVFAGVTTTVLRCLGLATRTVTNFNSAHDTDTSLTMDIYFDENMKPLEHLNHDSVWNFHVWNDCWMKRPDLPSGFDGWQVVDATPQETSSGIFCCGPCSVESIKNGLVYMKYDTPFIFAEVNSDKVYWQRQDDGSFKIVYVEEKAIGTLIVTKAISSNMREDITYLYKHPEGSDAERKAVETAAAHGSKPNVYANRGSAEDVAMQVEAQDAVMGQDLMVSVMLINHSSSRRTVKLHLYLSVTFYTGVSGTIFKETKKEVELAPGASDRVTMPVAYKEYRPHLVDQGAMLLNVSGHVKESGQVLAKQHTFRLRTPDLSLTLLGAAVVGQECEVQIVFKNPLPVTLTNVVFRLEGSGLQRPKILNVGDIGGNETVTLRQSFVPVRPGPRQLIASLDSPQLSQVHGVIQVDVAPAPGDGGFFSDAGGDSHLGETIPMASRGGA
Experimental: For the kinetic characterization of DMC (Figure 1B) in the presence of a fixed concentration of R-I-Cad (0.74 µM), eight different concentrations of DMC (0.3–300 µM) were used (2–3 separate experiments, each performed in duplicate). The corresponding stock solutions of DMC and R-I-Cad were prepared in assay buffer A and DMSO, respectively. […] Values for Km, Ki and Vmax were calculated according to the equation of substrate inhibition (Equation (2)). (2) v=Vmax∗[S]/Km+[S]∗(1+[S]/Ki)

[4] = read-out: Ki (substrate inhibition)

| IC50 (hTGase 3) | Compound | kinact/KI hTGase 2 (hTGase 2 [1]) | kinact/KI (hTGase 2 [2]) | further results |
| --- | --- | --- | --- | --- |
| > 30 µM | C=CC(=O)NCCCC[C@H](NC(=O)Cc1ccccc1)C(=O)N1CCN(c2cccc(C)n2)CC1 [Compound 1] | 4880 (20)^c M^−1s^−1 |  |  |
| > 100 µM | C#Cc1cccc(N2CCN(C(=O)[C@H](CCCCNC(=O)C=C)NC(=O)Cc3ccccc3)CC2)n1 [Compound 3, N^α-Phenylacetyl-N^ε-acryloyl-L-lysine-4-(6-ethinylpyridin-2-yl)piperazide] |  | 3450 M⁻¹ s⁻¹ |  |
| 32.8 µM | C=CC(=O)NCCCC[C@H](NC(=O)Cc1ccccc1)C(=O)N1CCN(c2ccc([N+](=O)[O-])nc2)CC1 [Compound 2] | 8460 (710) ^c M^−1s^−1 |  |  |
|  | N,N-dimethylated casein [DMC] |  |  | Km (hTGase 2 [3]): 2.78 µM; Ki (hTGase 2 [3]; [4]): 174 µM; Vmax (hTGase 2 [3]; pH 8.0, 30 °C): 26.4 (2.8) mA mL s^−1 mg^−1; Vmax (hTGase 1; DMC 0.3–300 µM, 5% DMSO, 500 µM DTT): 121 (13) mA mL s^−1 mg^−1; Km (hTGase 1): 8.77 µM; Ki (hTGase 1; [4]): 270 µM |

| Compound | IC50 (hTGase 3) | kinact/KI hTGase 2 (hTGase 2 [1]) | kinact/KI (hTGase 2 [2]) | further results |
| --- | --- | --- | --- | --- |
| C=CC(=O)NCCCC[C@H](NC(=O)Cc1ccccc1)C(=O)N1CCN(c2cccc(-c3cn(CCOCCOCCOCCNC(=O)CCCC[C@@H]4SC[C@@H]5NC(=O)N[C@@H]54)nn3)n2)CC1 [Compound 4, N-(2-(2-(2-(2-(4-(6-(4-(N^6-acryloyl-N^2-(2-phenylacetyl)-L-lysyl)piperazin-1-yl)pyridin-2-yl)-1H-1,2,3-triazol-1-yl)ethoxy)ethoxy)ethoxy)ethyl)-5-((3aS,4S,6aR)-2-oxohexahydro-1H-thieno[3,4-d]imidazol-4-yl)pentanamide] | > 100 µM |  | 7260 M⁻¹ s⁻¹ |  |
